The record followed here is ChEMBL document CHEMBL1133426, “2-Substituted paullones: CDK1/cyclin B-inhibiting property and in vitro antiproliferative activity” (Bioorg Med Chem Lett, 2000).

The nature of one assay: cells. It counts as functional. Particulars: Homo sapiens.
Another assay relates to HCT-116. Nature of the assay: cells. It counts as functional. Particulars: Homo sapiens.

Description for HCT-116: Inhibition of HCT116 colon cancer cell proliferation

In turn, `O=C1Cc2c([nH]c3ccc(Br)cc23)-c2ccccc2N1` [KENPAULLONE] gave a GI50 in the assay “cells” of 39.8 µM. `O=C1Cc2c([nH]c3ccc(C(F)(F)F)cc23)-c2cc(C#CCO)ccc2N1`: the GI50 in the assay “cells” was 12.6 µM; in the assay on HCT-116, 3.16 µM. Regarding `O=C1Cc2c([nH]c3ccc(C(F)(F)F)cc23)-c2cc(C#CC3(O)CCCCC3)ccc2N1`, the GI50 in “cells” is 2 µM; in the assay on HCT-116, 2.51 µM.

A word on the GI50: it is the concentration at which growth is held to half of that of the control. A lower GI50 goes with more potent growth inhibition.
